Holding throughout (type): cell-based, human
Experiment [1] relates to MAN2A1-FER transformed PC3 cells. Put plainly: Cell death of PC3 cells transformed with pCDNA4-MAN2A1-FER-FLAG/pCDNA6. The method, then:
FIG. 23. […] Prostate cancer cell line PC3 was transformed with pCDNA4-MAN2A1-FER-FLAG/pCDNA6. Expression of MAN2A1-FER was induced with 5 μg/mL tetracycline. Cells not treated with tetracycline nor any drug were used as background controls.
The second approach is to target EGFR activation by EGFR inhibitors. These include erlotinib, cetuximab, […], canertinib and […]. Many of these drugs were FDA approved and is widely used in a variety of human solid tumors. To interrogate the effectiveness of EGFR activation interruption in treating prostate cancer, we treated MAN2A1-FER transformed PC3 cells with canertinib.

Experiment [2] deals with PC3 cells containing TMEM135-CCDC67 breakpoint. Description: Ganciclovir killing of PC3 cells after genome editing that integrates HSV-1 TK at the TMEM135-CCDC67 breakpoint. From the text:
(§1) FIG. 28A-B. Genetic therapy targeting at TMEM135-CCDC67 genome breakpoint.
(§2) The technique described above was applied to cells having the TMEM135-CCDC67 breakpoint. Since none of the fusion genes we identified so far was present in prostate cancer cell lines, we created a TMEM135-CCDC67 genome breakpoint that is identical to the prostate cancer sample we analyzed. The expression of the TMEM135-CCDC67 breakpoint was driven by a CMV promoter. Subsequently, we constructed a donor DNA that encompassed HSV-1 TK and the splicing sites of TMEM135 exon 14. When we co-transfected this donor DNA with a vector that expresses gRNA targeting at the TMEM135-CCDC67 breakpoint into PC3 cells containing this genome breakpoint, integration of TK into the genome was identified (FIG. 28A). […] This is remarkable in considering only 5-10% transfection efficiency using conventional liposome method. […] In light of this promising result, both TMEM135-CCDC67-TK cassette and NicKase-gRNATMEM135-CCDC67-BrkPt DNA are now in the process of packaging into Adenovirus. We will infect the recombinant virus into these cells in the future experiments. This will dramatically improve the delivery efficiency in the subsequent animal study and probably human.

The test system of the next experiment is PC3 cells. The description is as above. The settings on record: PC3 cells without TMEM135-CCDC67 breakpoint, same treatment.
From the text: as §1, §2

Like-named read-outs stand apart in the source and are kept apart here.

For `Cn1cnc2c(F)c(Nc3ccc(Br)cc3Cl)c(C(=O)NOCCO)cc21` [AZD6244], the “differential killing effect (MAN2A1-FER expressing versus not)” value in experiment [1] (MEK interception, data not shown) was “largely moderated and vanished”.

`C=CC(=O)Nc1cc2c(Nc3ccc(F)c(Cl)c3)ncnc2cc1OCCCN1CCOCC1` [Canertinib]: in experiment [1] (PC3 cells not expressing MAN2A1-FER (Tet-)), the “cell death / killing of cells not expressing MAN2A1-FER” value is “minimal”. Besides, the “specific killing of MAN2A1-FER expressing cells (FIG. 23)” value in experiment [1] (expression induced with 5 μg/mL tetracycline) was “specifically kills”.

`C[C@@H](Oc1cc(-c2cnn(C3CCNCC3)c2)cnc1N)c1c(Cl)ccc(F)c1Cl` [Crisotinib]: in experiment [1], the cell death was 31%, the “cell death / killing of cells not expressing MAN2A1-FER” value is “hardly killed”, the “lowering of cancer killing EC50 by expression of MAN2A1-FER” value is listed as approximately 100 fold and the “specific killing of MAN2A1-FER expressing cells (FIG. 23)” value was “specifically kills”.

In the case of `Nc1nc(O)c2ncn(COC(CO)CO)c2n1` [ganciclovir], the “specific killing of TMEM135-CCDC67 breakpoint containing PC3 cells (FIG. 28B)” value in experiment [2] is “specific killing”. Moreover, in the experiment on PC3 cells, the cell death entry is listed as “minimal cell death”.

Source of the values: patent US10988812B2, “Fusion genes associated with progressive prostate cancer” (UNIVERSITY OF PITTSBURGH - OF THE COMMONWEALTH SYSTEM OF …, priority 2013, dated 2021).
